Earlier results, collected in patent US11406636B2, “Combined pharmaceutical composition” (Alepharma, Sociedad Anónima Promotora de inversión de …, priority 2017, dated 2022).
Read-outs that look alike come from different tables or passages of the source.

Experiments:
CML formation = conditions: bovine serum with ribose, presence or absence of natural compounds
[1] = system: streptozotocin-induced diabetic rat; conditions: for levels of methylglyoxal: increased by 68% in diabetic rats versus normal controls; for levels of glyoxal: increased by 115% in diabetic rats versus normal controls
diabetic rats = conditions: 200 mg/kg weight orally for 8 weeks
[2] = system: bovine serum albumin, ribonuclease A and human hemoglobin; conditions: in vitro
[3] = not given; remark: listed apart in the source
[4] = physiological conditions, dose-dependent, forming adducts
[5] = within the first hour under physiological conditions

## C[C@@H]1O[C@@H](O[C@@H]2[C@@H](O)[C@H](OCCc3ccc(O)c(O)c3)O[C@H](CO)[C@H]2OC(=O)/C=C/c2ccc(O)c(O)c2)[C@H](O)[C@H](O)[C@H]1O [acteoside]
CML formation
  formation of CML: increase the formation of CML

## C/C(=C(\CCOP(=O)(O)O)SC(=O)c1ccccc1)N(C=O)Cc1cnc(C)nc1N [benfotiamine]
[1]
  levels of methylglyoxal: normalized
  levels of glyoxal: normalized

## COc1cc(/C=C/C(=O)CC(=O)/C=C/c2ccc(O)c(OC)c2)ccc1O [curcumin, Curcumin]
Diabetic rats
  accelerated accumulation of AGEs in the collagen, detected by ELISA: prevented
  accumulation of lipid peroxidation products in serums: significantly reduced
  collagen cross-linking in the tendon of the tail and skin: extensively prevented
  oxidative stress: significantly reduced

## O=C(O)c1cc(O)c(O)c(O)c1 [gallic acid]
CML formation
  formation of CML: increase the formation of CML

## CC1(C)[C@@H](O)CC[C@]2(C)[C@H]3C(=O)C=C4[C@@H]5C[C@@](C)(C(=O)O)CC[C@]5(C)CC[C@@]4(C)[C@]3(C)CC[C@@H]12 [glycylrhetinic acid]
CML formation
  formation of CML: significantly inhibited the formation of CML

## CC1(C)[C@@H](O[C@H]2O[C@H](C(=O)O)[C@@H](O)[C@H](O)[C@H]2O[C@@H]2O[C@H](C(=O)O)[C@@H](O)[C@H](O)[C@H]2O)CC[C@]2(C)[C@H]3C(=O)C=C4[C@@H]5C[C@@](C)(C(=O)O)CC[C@]5(C)CC[C@@]4(C)[C@]3(C)CC[C@@H]12 [glycyrrhizin]
CML formation
  formation of CML: significantly inhibited the formation of CML

## Cc1ncc(CO)c(CN)c1O [pyridoxamine]
[2]
  inhibition of the formation of AGEs, compared with aminoguanidine: more effective than aminoguanidine

## Cc1ncc(CO)c(CO)c1O [pyridoxine, Pyridoxine]
[2]
  inhibition of the formation of AGEs, compared with aminoguanidine: more effective than aminoguanidine

## O=c1c(O)c(-c2ccc(O)c(O)c2)oc2cc(O)cc(O)c12 [quercetin, Quercetin]
[4]
  methylglyoxal trapped: ≤ 80%
[5]
  methylglyoxal trapped: ≤ 50%
[3]; [4]
  glyoxal trapped: up to 50%
[3]; [5]
  glyoxal trapped: up to 30%
CML formation
  formation of CML: significantly inhibited the formation of CML

## Cc1ncc(C[n+]2csc(CCO)c2C)c(N)n1 [thiamine, Thiamine]
[2]
  inhibition of the formation of AGEs, compared with aminoguanidine: more effective than aminoguanidine
[1]
  levels of methylglyoxal: normalized
  levels of glyoxal: normalized
[1]; increased by 74% in diabetic rats
  levels of N-carboxymethyl-lysine (CML): normalized
[1]; increased by 118% in diabetic rats
  levels of N-carboxyethyl-lysine (CEL): normalized
